“Also recorded” adds a separate entry of the source. Blank lines part the entries; values can stand above or below the molecule they belong to.
Tests used:
Type in all cases: cell-based, human
IMR90-1 hiPSCs = assay: Beating colonies of hiPSCs (IMR90-1) in serum-containing cardiac differentiation; details: for proportions of beating colonies: hiPSCs; for proportions of beating colonies with BIO: with 5 μM BIO (GSK3β inhibitor)
Experimental: Confluent hESCs and hiPSCs were gently detached with CTK solution and transferred into Petri dishes (BD Biosciences) with Primate ES Cell Culture Medium (ReproCELL, Japan). Cells were held in suspension culture for 8-24 h to form aggregates. The sizes of hPSC aggregates (0.3-1 mm in diameter) are important for efficient differentiation. Following suspension culture, cell aggregates were attached to culture dishes (3-10×10^5 cells cm^−2) in cardiac differentiation medium: IMDM (Sigma), containing 20% FBS (Gibco), 1% MEM non-essential amino acid solution (Sigma), 1% Penicillin-Streptomycin (Gibco), 2 mM L-glutamine (Sigma), 0.001% 2-Mercaptoethanol (Gibco), and 0.005N NaOH, with 10 ng ml^−1 BMP4 (R&D Systems). The medium was changed to cardiac differentiation medium with 10 μM KY02111 and/or other WNT inhibitors added on Day 3 (hiPSC lines) or Day 4 (human or monkey ESC lines); XAV939 (Wako, Japan), IWP-2 (Santa Cruz Biotechnology), IWR-1 (Merck4Bioscience), IGFBP4 (R&D Systems), Dkk1 (R&D Systems) and the mixture of bFGF (R&D Systems), BMP4 (R&D Systems), VEGF (R&D Systems), DKK1 (R&D Systems), and Activin A (R&D Systems) (Non-patent literature 16). Medium was changed every 2-3 d. KY02111 and other WNT inhibitors were added until Day 9 for hiPSC lines and the monkey ESC line, or Day 14 for hESC lines. On Day 15, cardiac cell colonies on dishes were incubated with protease solution (0.1% collagenase type I, 0.25% trypsin, 1 U ml^−1 DNase I, 116 mM NaCl, 20 mM HEPES, 12.5 mM NaH2PO4, 5.6 mM glucose, 5.4 mM KCl, and 0.8 mM MgSO4, pH 7.35) for 0.5-2 h, until all cardiac colonies were detached from the bottom of the wells. The detached cardiac colonies were transferred into 15 ml tubes with fresh cardiac differentiation medium and precipitated by gravity, and the supernatant was removed by aspiration. The cardiac colonies were then transferred into Ultra-low culture dishes (Corning, 3261) or 6-well plates (Corning, YO-01835-24) in cardiac differentiation medium without both serum and NaOH. The floating cardiac colonies were maintained for more than 1 month, and the media were changed every 5 d. A differentiation method of mouse ESC (R1 line) was carried out as previously described^46, and KY02111 was added during Days 3-6. Beating colonies were counted on Day 9.

[1] = system: WNT target genes in IMR90-1 hiPSCs; assay: Microarray and qPCR gene expression of WNT target genes; details: for expression levels of WNT target genes by qPCR: 12, 24 and 72 h after treatment
Experimental: IMR90-1 iPSCs were cultured in cardiac differentiation medium containing serum. On Day 3, cells were treated with 10 μM KY02111 or 0.1% DMSO for 0, 12, or 24 h. Non-treated cells (0 h), cells treated with KY02111 for 12 h (KY12hr) or 24 h (KY24hr), and cells treated with 0.1% DMSO for 12 h (DMSO12hr) or 24 h (DMSO24hr) were used for microarray analysis. Total RNA was prepared using the RNeasy Mini Kit (Qiagen), according to the manufacturer's instructions. Synthesis of cDNA, in vitro transcription and biotin labeling cRNA, and hybridization to the Human Gene 1.0 ST array (Affymetrix) were performed according to Affymetrix protocols. Hybridized arrays were scanned using an Affymetrix GeneChip Scanner. Data normalization and further analysis were performed with GeneSpring GX (Agilent Technologies). Proportions of treated cells expressing genes relative to control (KY02111/DMSO) were calculated for each time point. […] The microarray data have been submitted to the Gene Expression Omnibus (GEO) public database at NCBI (GEO accession number, GSE33622).
Total RNA was isolated with an RNeasy Mini Kit (QIAGEN). Genomic DNA was completely digested with DNase I (Invitrogen). Total RNA (0.5 μg) was subjected to cDNA synthesis using the SuperScript III Reverse Transcriptase (Invitrogen). qRT-PCR was performed in triplicate, using SYBER GREEN PCR Master Mix on a 7500 Real Time PCR System (Applied Biosystems). The cycling conditions were as follows: 10 min at 95° C.; 40 cycles, each consisting of 15 s at 95° C.; 1 min at 60° C. Total RNA from human adult heart tissue (BioChain) was used to evaluate the expression levels of cardiac marker genes for cardiomyocytes derived from hPSCs. All values were normalized with respect to GAPDH expression level and expressed relative to the corresponding values in human adult hearts (100%).

[2] = system: TCF promoter activity (canonical WNT signaling) in IMR90-1 hiPSCs; assay: TOPflash TCF reporter-luciferase assay in hiPSCs; details: 10 μM, with 60 ng/ml Wnt3a or 3 μM BIO
Experimental: For the TCF reporter assay, IMR90-1 hiPSCs were cultured in the serum-containing differentiation culture, as described above, and transfected with TOPFlash plasmid (Millipore 21-170) and pRL-SV40 plasmid (Renilla luciferase transfection control, Promega E1980) on Day 2, using FuGENE HD transfection Reagenet (Promega E2311). After 24 h, 10 μM KY02111, 10 μM XAV939, or 10 μM IWP-2 was added to the medium, along with either 60 ng ml^−1 of mouse Wnt3a (Wako 232-02421) or 3 μM BIO. After 48 h of transfection (Day 4), luciferase activities were measured using a Dual-Luciferase Reporter 1000 Assay System kit (Promega E1980) and a 2030 ARVO X3 plate reader (PerkinElmer). Luciferase activities were normalized to the luminescence of the transfection control, Rennila luciferase, according to the kit protocol. For experiments using HEK293 cells, the cells were cultured in 10% FBS DMEM medium, and transfected with TOPflash and pRL-SV40 plasmid, using FuGENE HD. After 24 h, the transfected cells were seeded onto 96-well plates (10,000 cells well^−1) in medium containing 10 μM KY02111, 10 μM XAV939, or 10 μM IWP-2, along with 3 μM BIO or 60 ng ml^−1 mouse Wnt3a. Luciferase activities were measured 48 h after transfection by the procedure described above.

TCF promoter (luciferase) activity elevated by Wnt3a or BIO [2]: didn't inhibit
Structure (SMILES): Cc1ccc2nc(NC(=O)CSc3nc4c(c(=O)n3-c3ccccc3)SCC4)sc2c1 [IWP-2, reference compound]
proportions of beating colonies (IMR90-1 hiPSCs; FIG. 3d): 37%
proportions of beating colonies with BIO (IMR90-1 hiPSCs; FIG. 3d): completely inhibit
expression levels of WNT target genes by qPCR [1]: suppressed

Structure (SMILES): COc1ccc(CCC(=O)Nc2nc3ccc(Cl)cc3s2)cc1OC [KY02111, 2-(3-(3,4-dimethoxyphenyl)propanamide)-6-chlorobenzothiazole]
promotion of cardiac differentiation of hiPSCs compared with other WNT inhibitors (IMR90-1 hiPSCs; FIG. 3d): most effective
proportion of beating colonies after subculture (IMR90-1 hiPSCs; floating culture of beating colonies, FIG. 6): up to 90%
proportions of beating colonies (IMR90-1 hiPSCs; FIG. 3d): 87%
day on which beating colonies emerged (IMR90-1 hiPSCs; time course, FIG. 6): 10 days
day until which cardiac colonies continued beating (IMR90-1 hiPSCs; time course, FIG. 6): ≥ 50 days
proportions of beating colonies with BIO (IMR90-1 hiPSCs; FIG. 3d): did not cancel
number of genes changed >25% at both 12 and 24 h (microarray) ([1]; 10 μM, versus DMSO): 26 genes
expression levels of WNT target genes by qPCR [1]: suppressed
TCF promoter (luciferase) activity elevated by Wnt3a or BIO [2]: clearly reduced luciferase activities; also recorded: inhibited

Structure (SMILES): Oc1nc(-c2ccc(C(F)(F)F)cc2)nc2c1CSCC2 [XAV939, reference compound]
proportions of beating colonies (IMR90-1 hiPSCs; FIG. 3d): 7.5%
proportions of beating colonies with BIO (IMR90-1 hiPSCs; FIG. 3d): completely inhibit
expression levels of WNT target genes by qPCR [1]: suppressed
TCF promoter (luciferase) activity elevated by Wnt3a or BIO [2]: clearly reduced luciferase activities; also recorded: inhibited
